Results: patent US11414413B2, “Heterocyclic compound as JAK inhibitor, and salts and therapeutic use thereof” (Suzhou Longbiotech Pharmaceuticals Co., Ltd., priority 2016, dated 2022)

Experiments:
[1] = tested on: Wistar rats; assay: Effect of repeated administration on hematological parameters in rats; type: in vivo, rat
Experimental: 48 healthy Wistar rats were taken, half ♀ and half ♂. According to the body weight, they were randomly divided into the control group (Veh). The compound of Example 3 was administered by gavage at doses of 1.5 mg·kg^−1·d^−1 and 4.5 mg·kg^−1·d^−1. Ruxolitinib was administered by gavage at dose of 4.5 mg·kg^−1·d^−1. There were 12 rats in each group, half ♀ and half ♂. The drug was administered by gavage once a day for 4 weeks, and the hematological parameters were examined 1 day and 2 days after the last administration.

[2] = target: JAK2 (Homo sapiens (Human), UniProt O60674); assay: Inhibition of JAK2, luminescence kinase assay (ADP-Glo); type: biochemical; settings: purified recombinant JAK2
Chain of JAK2 (O60674 whole entry): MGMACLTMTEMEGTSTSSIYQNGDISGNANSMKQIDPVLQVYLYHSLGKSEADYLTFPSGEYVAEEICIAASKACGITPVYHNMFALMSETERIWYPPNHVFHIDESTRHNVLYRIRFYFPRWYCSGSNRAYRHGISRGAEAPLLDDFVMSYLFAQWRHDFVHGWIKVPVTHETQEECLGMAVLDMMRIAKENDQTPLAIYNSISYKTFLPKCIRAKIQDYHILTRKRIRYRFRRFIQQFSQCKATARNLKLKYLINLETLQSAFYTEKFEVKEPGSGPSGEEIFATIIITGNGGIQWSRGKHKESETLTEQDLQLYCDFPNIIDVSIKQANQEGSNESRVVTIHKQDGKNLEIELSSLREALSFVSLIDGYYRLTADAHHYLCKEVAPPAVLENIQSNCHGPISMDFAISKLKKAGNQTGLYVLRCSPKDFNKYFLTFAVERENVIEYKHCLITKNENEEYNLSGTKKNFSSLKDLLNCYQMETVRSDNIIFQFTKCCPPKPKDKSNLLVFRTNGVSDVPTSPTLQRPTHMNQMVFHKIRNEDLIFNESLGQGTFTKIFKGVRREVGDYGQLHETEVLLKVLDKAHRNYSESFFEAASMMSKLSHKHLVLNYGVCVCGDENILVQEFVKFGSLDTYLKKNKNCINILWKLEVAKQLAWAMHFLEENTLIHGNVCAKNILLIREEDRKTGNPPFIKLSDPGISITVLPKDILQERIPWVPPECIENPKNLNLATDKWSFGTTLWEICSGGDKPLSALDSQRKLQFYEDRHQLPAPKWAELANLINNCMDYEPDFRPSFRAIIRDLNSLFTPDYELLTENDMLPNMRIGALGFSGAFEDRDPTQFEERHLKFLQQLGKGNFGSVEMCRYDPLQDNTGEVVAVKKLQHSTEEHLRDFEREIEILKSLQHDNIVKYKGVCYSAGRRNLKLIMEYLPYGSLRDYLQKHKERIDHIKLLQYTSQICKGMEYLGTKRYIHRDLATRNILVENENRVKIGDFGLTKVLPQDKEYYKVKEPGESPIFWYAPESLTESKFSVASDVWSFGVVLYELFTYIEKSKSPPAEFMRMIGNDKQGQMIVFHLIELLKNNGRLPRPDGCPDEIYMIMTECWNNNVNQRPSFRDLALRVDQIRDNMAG
Experimental: (§1) The study of the effect of compounds on the activity of purified recombinant JAK was performed by studying the inhibitory activity of the compounds on JAK from the enzymatic level. The experimental principle is to use a luminescence kinase assay to detect the ADP content produced by the reaction of JAK with the substrate Poly (4:1 Glu, Tyr) peptide: after ADP is converted to ATP, ATP can act as a substrate for the Ultra-Glo luciferase catalytic reaction, producing an optical signal. The luminescence signal is positively correlated with the amount of ADP and kinase activity. Therefore, the inhibitory effect of the compounds on the recombinant JAK was determined by observing the luminescence signal produced by the reaction of JAK and the substrate, and was expressed by IC50.
(§2) Experimental method: 10 different concentrations of compounds were incubated with JAK1, JAK2 and JAK3, respectively, for 60 minutes at 37° C. The substrate and ATP were then added, mixed, and reacted at 37° C. for 50 minutes. 25 μl of ADP-Glo™ was added and mixed for 2 minutes. The reaction was carried out for 50 minutes at room temperature. Further, 50 μl of the detection reagent was added and mixed for 2 minutes, and incubated at room temperature for 50 minutes, and detected by a chemiluminometer.

[3] = target: JAK1 (Homo sapiens (Human), UniProt P23458); assay: Inhibition of JAK1, luminescence kinase assay (ADP-Glo); type: biochemical; settings: purified recombinant JAK1
Chain of JAK1 (P23458 whole entry): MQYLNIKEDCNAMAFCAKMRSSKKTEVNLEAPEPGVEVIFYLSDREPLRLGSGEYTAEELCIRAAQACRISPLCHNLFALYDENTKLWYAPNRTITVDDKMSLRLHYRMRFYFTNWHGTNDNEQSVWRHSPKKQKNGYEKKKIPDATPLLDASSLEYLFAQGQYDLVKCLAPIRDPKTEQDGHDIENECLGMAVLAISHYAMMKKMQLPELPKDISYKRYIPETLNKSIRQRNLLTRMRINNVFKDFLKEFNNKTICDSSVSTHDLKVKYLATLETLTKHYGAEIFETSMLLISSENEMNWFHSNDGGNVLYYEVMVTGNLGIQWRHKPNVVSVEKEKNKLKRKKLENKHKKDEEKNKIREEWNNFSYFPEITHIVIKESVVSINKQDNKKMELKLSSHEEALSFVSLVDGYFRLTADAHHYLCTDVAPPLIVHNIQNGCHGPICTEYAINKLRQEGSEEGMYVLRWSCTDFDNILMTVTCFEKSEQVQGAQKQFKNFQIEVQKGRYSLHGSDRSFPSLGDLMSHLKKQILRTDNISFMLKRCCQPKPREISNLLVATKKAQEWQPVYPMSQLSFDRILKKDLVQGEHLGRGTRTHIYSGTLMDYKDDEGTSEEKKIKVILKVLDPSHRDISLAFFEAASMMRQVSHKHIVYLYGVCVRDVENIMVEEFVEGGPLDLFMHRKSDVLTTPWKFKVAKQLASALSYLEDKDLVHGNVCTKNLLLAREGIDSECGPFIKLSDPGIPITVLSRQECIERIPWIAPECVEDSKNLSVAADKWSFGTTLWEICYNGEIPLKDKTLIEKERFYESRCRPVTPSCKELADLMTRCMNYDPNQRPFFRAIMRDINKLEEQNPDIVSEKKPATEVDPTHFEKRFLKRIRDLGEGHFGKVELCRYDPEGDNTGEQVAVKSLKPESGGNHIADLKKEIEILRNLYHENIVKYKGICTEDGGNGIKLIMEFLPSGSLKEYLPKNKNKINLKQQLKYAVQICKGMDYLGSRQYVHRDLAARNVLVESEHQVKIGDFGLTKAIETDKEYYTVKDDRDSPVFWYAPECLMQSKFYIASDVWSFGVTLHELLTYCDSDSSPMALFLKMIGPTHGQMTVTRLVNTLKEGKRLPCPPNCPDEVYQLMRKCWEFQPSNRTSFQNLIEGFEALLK
Experimental: as §1, §2

[4] = target: JAK3 (Homo sapiens (Human), UniProt P52333); assay: Inhibition of JAK3, luminescence kinase assay (ADP-Glo); type: biochemical; settings: purified recombinant JAK3
Chain of JAK3 (P52333 whole entry): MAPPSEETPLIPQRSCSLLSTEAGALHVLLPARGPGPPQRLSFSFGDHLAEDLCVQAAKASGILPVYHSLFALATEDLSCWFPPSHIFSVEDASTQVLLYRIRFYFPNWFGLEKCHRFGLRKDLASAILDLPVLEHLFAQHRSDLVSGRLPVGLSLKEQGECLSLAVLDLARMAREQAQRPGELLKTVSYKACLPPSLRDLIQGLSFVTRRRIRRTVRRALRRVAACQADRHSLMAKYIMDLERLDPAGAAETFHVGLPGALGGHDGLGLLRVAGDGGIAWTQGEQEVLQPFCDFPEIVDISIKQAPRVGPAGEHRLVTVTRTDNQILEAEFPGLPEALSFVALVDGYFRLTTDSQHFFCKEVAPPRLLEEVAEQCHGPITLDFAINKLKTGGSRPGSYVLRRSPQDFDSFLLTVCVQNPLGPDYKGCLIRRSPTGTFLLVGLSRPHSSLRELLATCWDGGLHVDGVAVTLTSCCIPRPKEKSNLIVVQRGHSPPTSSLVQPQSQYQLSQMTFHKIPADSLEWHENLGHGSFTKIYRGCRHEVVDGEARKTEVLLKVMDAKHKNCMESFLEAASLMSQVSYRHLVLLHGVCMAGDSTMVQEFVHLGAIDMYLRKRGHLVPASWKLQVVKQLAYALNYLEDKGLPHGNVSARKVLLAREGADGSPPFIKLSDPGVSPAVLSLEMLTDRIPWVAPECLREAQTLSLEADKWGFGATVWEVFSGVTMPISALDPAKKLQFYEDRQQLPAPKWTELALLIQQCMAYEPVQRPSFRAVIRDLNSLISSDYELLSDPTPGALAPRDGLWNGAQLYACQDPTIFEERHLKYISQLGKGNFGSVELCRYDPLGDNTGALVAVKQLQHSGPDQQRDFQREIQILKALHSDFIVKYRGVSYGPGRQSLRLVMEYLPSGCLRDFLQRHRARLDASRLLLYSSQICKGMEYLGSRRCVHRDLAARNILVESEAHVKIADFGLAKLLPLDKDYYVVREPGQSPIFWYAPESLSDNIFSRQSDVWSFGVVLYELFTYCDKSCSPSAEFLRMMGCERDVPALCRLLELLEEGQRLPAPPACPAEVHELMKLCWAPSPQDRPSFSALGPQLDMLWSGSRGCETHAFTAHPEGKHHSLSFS
Experimental: as §1, §2

[5] = gavage 4.5 mg·kg−1·d−1 once a day for 4 weeks

Structure (SMILES) | hematological parameter WBC compared with the control group (Veh) ([1]; gavage 1.5 mg·kg−1·d−1 once a day for 4 weeks) | hematological parameter WBC compared with the control group (Veh) [1, 5] | IC50 [2] [µM] | IC50 [3] [µM] | IC50 [4] [µM]
N#CC[C@H](C1CCCC1)n1cc(-c2ncnc3[nH]ccc23)cn1 [Ruxolitinib, reference compound] | – | significant decrease | – | – | –
CCS(=O)(=O)N1CC(C#N)(Nc2ccnc(-c3ncnc4[nH]ccc34)n2)C1 [Example 46, 3-((2-(7H-pyrrolo[2,3-d]pyrimidin-4-yl)pyrimidin-4-yl)amino)-1-(ethylsulfonyl)azetidine-3-carbonitrile] | – | – | > 0.05 | > 0.05 | > 0.05
CNC(=O)CC1(n2cc(-c3ncnc4[nH]ccc34)cn2)CN(S(C)(=O)=O)C1 [Example 13, 2-(3-(4-(7H-pyrrolo[2,3-d]pyrimidin-4-yl)-1H-pyrazol-1-yl)-1-(methylsulfonyl)azetidin-3-yl)-N-methylacetamide] | – | – | > 0.05 | > 0.05 | > 0.05
O=C(CC1(n2cc(-c3ccnc4[nH]ccc34)cn2)CCCC1)NCC(F)(F)F [Example 27, 2-(1-(4-(1H-pyrrolo[2,3-b]pyridin-4-yl)-1H-pyrazol-1-yl)cyclopentyl)-N-(2,2,2-trifluoroethyl) acetamide] | – | – | > 0.05 | 0.02 to 0.05 | > 0.05

Next, values leading:

hematological parameter WBC compared with the control group (Veh) ([1]; gavage 1.5 mg·kg−1·d−1 once a day for 4 weeks) | hematological parameter WBC compared with the control group (Veh) [1, 5] | IC50 [2] [µM] | IC50 [3] [µM] | IC50 [4] [µM] | Structure (SMILES)
no significant decrease | no significant decrease | 0.02 to 0.05 | – | – | N#CCC1(n2cc(-c3ncnc4[nH]ccc34)cn2)CCS(=O)(=O)CC1 [Example 3, 2-(4-(4-(7H-pyrrolo[2,3-d]pyrimidin-4-yl)-1H-pyrazol-1-yl)-1,1-dioxotetrahydro-2H-thiopyran-4-yl)acetonitrile]
– | – | > 0.05 | > 0.05 | > 0.05 | CCS(=O)(=O)N1CC(CC(=O)NC)(n2cc(-c3ccnc4[nH]ccc34)cn2)C1 [Example 10, 2-(3-(4-(1H-pyrrolo[2,3-b]pyridin-4-yl)-1H-pyrazol-1-yl)-1-(ethylsulfonyl)azetidin-3-yl)-N-methylacetamide]
– | – | 0.02 to 0.05 | < 0.02 | < 0.02 | CS(=O)(=O)N1CC(CC(=O)NCC(F)(F)F)(n2cc(-c3ccnc4[nH]ccc34)cn2)C1 [Example 15, 2-(3-(4-(1H-pyrrolo[2,3-b]pyridin-4-yl)-1H-pyrazol-1-yl)-1-(methylsulfonyl)azetidin-3-yl)-N-(2,2,2-trifluoroethyl)acetamide]
– | – | > 0.05 | > 0.05 | 0.02 to 0.05 | N#CC1(Nc2ccnc(-c3c[nH]c4ncccc34)n2)CCS(=O)(=O)CC1 [Example 51, 4-((2-(1H-pyrrolo[2,3-b]pyridin-3-yl)pyrimidin-4-yl)amino)tetrahydro-2H-thiopyran-4-carbonitrile 1,1-dioxide]
